Assay results taken from US11827663B2, “Use of UAP inhibitors to inhibit flux through the hexosamine biosynthetic pathway” (The Johns Hopkins University, priority 2014, dated 2023).
Read-outs that look alike come from different tables or passages of the source.

Assays:
Assay type in all cases: cell-based
PANC-1 cells = experiment: Cell count / cell proliferation assay in PANC-1 cells; settings: Homo sapiens
Experimental: (§1) FIGS. 5A and 5B show the results of cell toxicity experiments that were conducted on SW1990 and PANC-1 cells with the analogs indicated. Cells were counted after incubation with each analog for 48 hours. Cell counts were then normalized to controls, data was log transformed, and IC50 values were calculated. […]
(§2) Cells were incubated at a range of concentrations of the UAP inhibitors (typically at 0, 10, 25, 50, 100, and 150 μM) and the number of cells were quantified, typically by automated counting (e.g., with a Coulter Counter Z2 instrument) after 1, 2, 3, or 5 days of exposure.

SW1990 cells = experiment: Cell count / cell proliferation assay in SW1990 cells; settings: for IC50: Homo sapiens
Experimental: FIG. 3 depicts the result of cell count assays after two days of incubation with an exemplary compound, Ac4Glc2Bz. The cells treated with the compound are, respectively, SW1990 and PANC-1, which are pancreatic cancer cell lines. Meanwhile, control samples were treated with solvent vehicle of 2.5 μL DMSO per 1 mL of medium.
as §1, §2

[1] = test system: primary glioblastoma line GS1049; experiment: Cell count of primary glioblastoma line GS1049; settings: 48 h incubation, cell counting normalized to untreated controls; read-out: Estimated IC50 values, GS 1049
Experimental: FIG. 7A depicts the results of primary glioblastoma lines 612 and GS1049 after incubation for 48 h with Ac4Glc2Bz followed by cell counting and normalization to untreated controls. The data is log transformed to easily determine IC50 values. FIG. 7B and FIG. 7C depict the measurement of proliferation of the primary glioblastoma lines after 48 h incubation with Ac4Glc2Bz using a MTT assay.
as §2

[2] = test system: primary human adipose stem cells (hASCs); experiment: Cell count assay in control cells (human ASCs)
Description: FIG. 4A and FIG. 4B depict histogram results of cell count assays after two days of exposure to each analog in cancer cell lines (SW1990 and PANC-1) and in control cells (human ASCs). […] In all cases, IC50 values were greater than 300 which is the highest concentration tested, for the ACSs, while the Ac4Glc2Bz analogs and Ac4Gal2Bz analogs were effective to reduce cell numbers in both cancer cell lines.

YAP/TAZ = experiment: Western blot of YAP/TAZ
Experimental: FIGS. 10A and 10B show the western blot results from primary glioblastoma cell lines 612 (FIG. 10A) (these cells were a kind gift of Dr. Quinones-Hinojosa (School of Medicine, Johns Hopkins University), who obtained the cells from cancer patients) and GS1049 (FIG. 10B) that were incubated for 48 h with Ac4Glc2Bz at the indicated concentrations. Each cell line was probed for the proteins Yes Associated Protein (YAP), transcriptional coactivator with PDZ-binding motif (TAZ), phosphorylated Yes Associated Protein (p-YAP), and Glyceraldehyde 3-phosphate dehydrogenase (GAPDH control). […] YAP/TAZ are two key mediators that act to […] the Hippo pathway, which helps to promote oncogenesis, metastasis, and cancer cell survival in circulation. Until now, there were no known small molecule pharmacological agents capable of decreasing YAP/TAZ expression. These studies helped illustrate the extraordinarily powerful potential of UAP1/2 inhibitors as truly disease modifying candidates, especially in cancer.
In addition, in FIG. 22B, YAP western blot results from Ac4Glc2Bz cells were obtained where shRNA knockdown of UAP1 was performed using lentiviral methods in PANC-1 cells (n=3). Similar to above, UAP1 in PANC-1 cells was knocked down using lentiviral vectors followed by 1 week selection using puromycin. […]

[3] = test system: N-glycans of SW1990 cells; experiment: Mass spectrometry of cell surface N-glycans in SW1990 cells; settings: 100 μM
Experimental: FIGS. 18A-18B present mass spectrometry results showing levels of N-glycans (lower molecular weight glycans) and high molecular weight glycans following treatments with Ac4Glc2Bz (100 μM) in SW1990 cells.
(a) Cell surface N-Glycans. After two days of incubation with analog (a length of time sufficient to observe maximal “metabolic glycoengineering” effects (Biotechnol Bioeng 85, 394-405 (2004); Biotechnol Bioeng 109, 992-1006 (2012); Mol Cell Proteomics, 10.1074/mcp.M1112.017558 (2012); Glycobiology 19, 1382-1401 (2009); Nature Protocols 2, 1585-1602 (2007)), cells treated with PNGaseF, N-glycans were collected, and analyzed by following a recently developed protocol that optimizes sialic acid detection and quantification (Anal Chem 85, 3606-3613 (2013)). As previously developed, automated methods were used to analyze mass spectroscopy data to detect phenyl-modified sugars in glycan structures. This analysis was valuable to monitor whether any phenyl-modified analog was biosynthetically processed (instead or in addition to inhibiting UAP) and incorporated into cellular glycans.
For example, as shown in FIGS. 18A-18B, SW1990 cells were treated with Ac4Glc2Bz (100 μM), and the cell extracts were analyzed by mass spectrometry.

IC50 (PANC-1 cells; PANC-1, 48 h, cell count after two days of incubation, FIG. 3, read-out: IC50 of reduction of cell numbers, PANC-1): ~50 µM | IC50 (PANC-1 cells; PANC-1, FIG. 5B, read-out: IC50 of PANC-1 cell proliferation): ~45 µM | IC50 (SW1990 cells; SW1990, 48 h, cell count after two days of incubation, FIG. 3, read-out: IC50 of reduction of cell numbers, SW1990): ~50 µM | IC50 ([2]; Homo sapiens, 48 h, two days of exposure, 300 is the highest concentration tested): > 300 µM
SMILES: CC(=O)OCC1OC(OC(C)=O)[C@@H](NC(=O)c2ccccc2)[C@@H](OC(C)=O)[C@@H]1OC(C)=O (stereo partly shown) [Ac4Glc2Bz]
IC50 (PANC-1 cells; PANC-1, cells counted after 48 hours incubation, normalized to controls, read-out: Estimated IC50 values, PANC-1): 45.5 ± 1.2 µM | IC50 (SW1990 cells; SW1990, cells counted after 48 hours incubation, normalized to controls, read-out: Estimated IC50 values, SW1990): 25.8 ± 1.5 µM | effect on SW1990 cell numbers / proliferation (SW1990 cells; in words): lowest IC50 value | IC50 [1]: 88.8 ± 1.8 µM | cytotoxicity / inhibition of normal ASCs ([2]; normal cells): minimally inhibits | protein expression of YAP/GAPDH (YAP/TAZ; as described in Example 5): reduce protein expression of YAP/GAPDH in a dose-dependent manner | protein expression of YAP/TAZ (YAP/TAZ; primary glioblastoma cell lines 612 and GS1049, 48 h): virtually abolished | amplitude of peaks for N-glycans (lower molecular weight glycans) [3]: not significantly reduced | peaks for high molecular weight glycans [3]: quantitative changes were identified
